Measurements reported in PMC5120310, “In Silico Exploration for Novel Type-I Inhibitors of Tie-2/TEK: The Performance of Different Selection Strategy in Selecting Virtual Screening Candidates” (Scientific Reports, 2016).
Read-outs that look alike come from different tables or passages of the source.

What was measured:
[1] = target: T1, recombinant human Tie-2 protein (Homo sapiens, UniProt Q02763); test: Z′-Lyte FRET enzymatic activity assay of Tie-2 kinase; type: biochemical; details: for Inhibition (%) @10 μg/ml / inhibition at 10 µg/mL: 10 μg/mL preliminary screening, Table S1; for inhibition at 5 µg/mL: read-out: Kinase Inhibition (%) at 5 μg/mL (± SD)
T1 construct: purchased Thermo Fisher Scientific Inc. PV3628
T1 sequence (Q02763 23-1124): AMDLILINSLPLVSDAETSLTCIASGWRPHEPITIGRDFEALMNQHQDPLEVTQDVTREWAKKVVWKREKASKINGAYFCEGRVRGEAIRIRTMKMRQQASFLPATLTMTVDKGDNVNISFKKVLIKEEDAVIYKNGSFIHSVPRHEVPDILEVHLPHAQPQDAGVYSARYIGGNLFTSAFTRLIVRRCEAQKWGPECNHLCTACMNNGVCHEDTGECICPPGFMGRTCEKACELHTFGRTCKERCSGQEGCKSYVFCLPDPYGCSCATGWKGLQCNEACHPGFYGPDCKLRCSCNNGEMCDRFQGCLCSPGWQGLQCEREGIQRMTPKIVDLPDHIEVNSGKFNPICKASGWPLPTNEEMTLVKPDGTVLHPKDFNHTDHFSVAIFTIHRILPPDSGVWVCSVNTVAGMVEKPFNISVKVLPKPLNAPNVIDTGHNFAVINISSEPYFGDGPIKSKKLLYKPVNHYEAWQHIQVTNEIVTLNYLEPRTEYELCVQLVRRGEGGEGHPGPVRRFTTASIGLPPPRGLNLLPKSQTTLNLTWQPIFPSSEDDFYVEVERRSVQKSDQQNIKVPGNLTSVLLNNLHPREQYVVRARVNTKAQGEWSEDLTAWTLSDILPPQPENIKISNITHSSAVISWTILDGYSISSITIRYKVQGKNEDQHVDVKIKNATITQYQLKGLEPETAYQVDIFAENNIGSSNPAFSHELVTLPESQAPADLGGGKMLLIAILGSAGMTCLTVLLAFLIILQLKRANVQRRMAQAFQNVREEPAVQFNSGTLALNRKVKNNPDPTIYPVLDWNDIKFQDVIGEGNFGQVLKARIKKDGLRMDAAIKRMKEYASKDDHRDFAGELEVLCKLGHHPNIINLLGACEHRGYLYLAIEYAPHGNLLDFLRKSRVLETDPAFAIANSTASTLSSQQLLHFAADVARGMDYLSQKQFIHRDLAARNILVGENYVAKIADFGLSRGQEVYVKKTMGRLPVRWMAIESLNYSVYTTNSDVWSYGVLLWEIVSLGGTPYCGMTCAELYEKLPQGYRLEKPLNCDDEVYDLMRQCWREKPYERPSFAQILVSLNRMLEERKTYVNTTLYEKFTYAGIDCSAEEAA
Method: In order to assess the biological inhibitory activity of the VS compounds, Z’-Lyte enzymatic activity assay based on FRET (Fluorescence Resonance Energy Transfer) technology was developed as described above. […] At first, all the compounds obtained from both filtering strategies were preliminary screened for their ability to inhibit Tie-2 kinase activity at the concentration of 10 μg/mL.
The Tie-2 kinase inhibitor (CAS#: 948557-43-5, purity ≥ 97%) was purchased from Merck Calbiochem (Darmstadt, Germany) and used as a positive control inhibitor in bioassays[40]. […] All the purchased screening compounds were firstly dissolved in dimethyl sulfoxide (DMSO) at a stock concentration of 5 mg/ml. The final working concentration of DMSO is less than 1%.
Compounds were tested for their ability to inhibit Tie-2 kinase activity using Z′-Lyte® kinase assay kit (ser/thr 5 peptide) with NUNC 384-well plate. In the first step, the test compounds and ATP solution were firstly prepared at 4 × desired concentration. The mixture of recombinant human Tie-2 protein and non-phosphorylated peptide at 2 × desired concentration was prepared in kinase reaction buffer A consisting of 50 mM HEPES (pH 7.5), 0.01% BRIJ-35, 10 mM MgCl2, 4 mM MnCl2, 1 mM EGTA and 2 mM DTT. Reactions were then carried out in a solution containing 2.5 μL test compounds, 5 μL Tie-2/Tyr 05 peptide mixture (10 ng Tie-2 and 2 μM Tyr 05 peptide) and 2.5 μL ATP (100 μM). Then, the assay plate was shaken for 30 seconds on a plate shaker, and incubated for 1 hour at room temperature (20~25 °C). After sufficient kinase reactions, 5 μL development reagent A was added to each well, and the plate was incubated for another hour. Finally, 5 μL stop reagent was added to terminate the reactions, and the coumarin and fluorescein emission signals (excitation: 400 nm; emission: 445 and 520 nm, respectively) were measured on a fluorescence plate reader (BioTek Synergy 4).

Tie-2 = test system: Tie-2; set-up: method as in PMID 17618114; details: tool inhibitor; read-out: IC50 against Tie-2, previously reported; cited from earlier work
[2] = Z′-Lyte assay, 100 μM ATP, n ≥ 2 per concentration, read-out: IC50 (half-maximal inhibitory concentration), Tie-2 kinase
[3] = in the dose-response figure, read-out: IC50 (dose-dependent inhibitory effect), Tie-2 kinase (converted)

Structure (SMILES) | Inhibition (%) @10 μg/ml [1] [%] | IC50 [1, 2] [µM] | also measured
COc1ccc(OC)c(Nc2nc(-c3cccc(NC(=O)c4ccccc4)c3)cs2)c1 [TP-C2-14] | 71.64±2.92 |  | 
O=C(Nc1ccc(NC(=S)NC(=O)c2cccc3ccccc23)cc1)c1cccs1 [TP-C2-15] | 72.64±14.95 |  | 
Cc1c(C(=O)NC(=S)Nc2ccc(-c3nc4ccccc4s3)cc2)oc2ccccc12 [TP-C2-16] | 84.1±0.44 | 8.83 ± 0.58 | 
CCc1cc2c(-c3ccccc3)cc(=O)oc2cc1OCC(=O)c1ccc(F)cc1 [TP-C2-18] | 43.81±7.48 |  | 
Cc1ccccc1OCC(=O)OCC(=O)c1ccc(OCc2ccccc2)cc1 [TP-C2-20] | 36.45±0.94 |  | 
O=C(OCC(=O)c1ccccc1Cl)c1ccc2c(c1)-c1ccccc1C2=O [TP-C2-21] | 75.19±7.09 |  | 
CC(=O)c1c(C)cc(C)c(CSc2ccccn2)c1C [TP-C2-22] | 90.2±6.92 | 8.44 ± 0.93 | 
COc1ccc(C(CC(=O)c2ccccc2)CC(=O)c2ccccc2)cc1OC [TP-C2-23] | 47.13±8.4 |  | 
Cc1ccc2nc(-c3ccc(NC(=S)NC(=O)COc4ccccc4C)cc3)sc2c1 [TP-C2-24] | 83.25±0.08 | 17.5 ± 1.16 | 
CN(CCc1ccccn1)S(=O)(=O)c1ccc2c3c(cccc13)C(=O)N2 [TP-C2-25] | -113.04±17.27 |  | 
Cc1ccccc1C(=O)Nc1cccc(Oc2ccc3c(c2)C(=O)NC3=O)c1 [TP-C2-26] | 61.34±20.45 |  | 
Cc1ccccc1COc1ccc(-c2nnn(CC(=O)Nc3ccc4c(c3)OCO4)n2)cc1 [TP-C2-28] | 40.32±14.48 |  | 
CC(C)CNC(=O)c1ccccc1NC(=O)c1ccccc1N(C)S(=O)(=O)c1ccccc1 [TP-C2-29] | 55.92±5.4 |  | 
Cc1cc(NC(=S)NC(=O)c2ccc3c(c2)OCO3)ccc1NC(=O)c1ccccc1 [TP-C2-30] | 81.26±3.96 | 2.05 ± 0.11 | 
COc1ccc(-c2cc3ccccc3oc2=O)cc1NC(=O)c1cccnc1 [TP-C2-31] | 51.93±0.22 |  | 
O=C(NCc1n[nH]c(=O)c2ccccc12)c1cc2ccccc2oc1=O [TP-C2-32] | 66.52±7.26 |  | 
COC(=O)c1ccc(C)c(NC(=O)c2cc(-c3ccccn3)nc3ccc(Br)cc23)c1 [TP-C2-33] |  | 3.31 ± 0.23 | inhibition at 10 µg/mL [1]: 95.2 ± 1.81%; IC50 [1, 3]: 3.32 µM
O=C(NCc1ccco1)c1cc(-c2ccccn2)nc2ccc(Cl)cc12 [TP-C2-35] | 87.59±3.7 | 4.59 ± 0.29 | 
O=C(c1cc(-c2ccncc2)nc2ccc(Cl)cc12)N1CCN(C(=O)C2CCCO2)CC1 (stereo not shown) [TP-C2-36] | 61.48±4.57 |  | 
Cc1ccc2nc(-c3ccccn3)cc(C(=O)NC3CCCc4ccccc43)c2c1 (stereo not shown) [TP-C2-37] | 80.89±0.31 | 10.8 ± 0.83 | 
NS(=O)(=O)c1ccc(CCNC(=O)c2cc(-c3ccncc3)nc3ccc(Cl)cc23)cc1 [TP-C2-38] | 89.98±1.62 | 7.88 ± 0.35 | 
CC(=O)Nc1cccc(NC(=O)c2cc(-c3ccncc3)nc3ccc(Br)cc23)c1 [TP-C2-39] | 75.1±0.83 |  | 
NC(=O)c1ccccc1NC(=O)CSc1nc(O)c(-c2ccccc2)c(=O)[nH]1 [TP-C2-41] | 90.36±1.3 | 6.12 ± 0.81 | 
CCOc1cc(CNCCc2ccc(S(N)(=O)=O)cc2)ccc1OCc1ccccc1.Cl [TP-C2-42] | 23.47±2.17 |  | 
Cc1ccc(C(=O)CSc2nc3ccccc3c(=O)n2N)o1 [TP-C2-43] | 55.24±1.85 |  | 
O=C(NCCOc1ccccc1)c1n[nH]c(=O)c2ccccc12 [TP-C2-44] | 52.94±2.54 |  | 
COc1ccc(-c2nnc(SC(CC(=O)NCc3ccco3)c3ccc(C)cc3)[nH]2)cc1 (stereo not shown) [TP-C2-45] | 65.92±4.36 |  | 
Cc1ccccc1C(=O)NC(=S)Nc1ccc(NC(=O)c2cc3ccccc3o2)cc1 [TP-C2-47] | 67.14±5.68 |  | 

Structure (SMILES) | Inhibition (%) @10 μg/ml [1] [%] | IC50 [1, 2] [µM] | also measured
c1ccc(-c2cc(-c3ccc4c(c3)OCCO4)c(-c3ccccc3)nn2)cc1 [TP-C2-48] | 43.96±2.34 |  | 
CC(=O)c1cccc(NC(=O)CSc2nnc(CSCc3ccccc3F)n2C)c1 [TP-C2-49] | 63.31±0.29 |  | 
O=C(NC(=S)Nc1cccc2c(O)cccc12)c1ccc(-c2ccccc2)cc1 [TP-C2-50] |  | 1.73 ± 0.17 | inhibition at 10 µg/mL [1]: 97.8 ± 1.13%; IC50 [1, 3]: 1.73 µM
CN1C(=O)c2ccc(C(=O)NCc3ccccn3)cc2C1=O [TP-C2-51] | 77.63±0.16 |  | 
O=C(COc1ccc(S(=O)(=O)N2CCc3ccccc32)cc1)NCc1cccnc1 [TP-C2-52] | 64.42±0.23 |  | 
Cc1cc(S(=O)(=O)Nc2ccc(F)cc2)ccc1OCC(=O)NCc1cccnc1 [TP-C2-53] | 77.43±0.89 |  | 
O=C(Nc1ccccn1)c1cc(-c2ccncc2)nc2ccccc12 [TP-C2-54] | 60.19±2.33 |  | 
O=C(Nc1ccccc1C(=O)NCc1cccnc1)c1cccc(F)c1 [TP-C2-55] | 81.27±3.01 | 8.21 ± 0.46 | 
Cc1ccc2c(c1)C(Cc1nc3ccccc3c(=O)n1CCc1ccccc1)C(=O)N2 (stereo not shown) [TP-C2-56] | 74.86±1.02 |  | 
O=C(Nc1ccc2c(c1)OCCO2)C1CC(=O)N(CCc2c[nH]c3ccc(F)cc23)C1 (stereo not shown) [TP-C2-57] | 48.64±1.91 |  | 
CC(=O)c1cccc(NC(=O)CSc2nnc(-c3ccccc3)c(=O)[nH]2)c1 [TP-C2-58] | 50.65±0.04 |  | 
O=C(c1n[nH]c(=O)c2ccccc12)N1CCOC(COc2ccccc2)C1 (stereo not shown) [TP-C2-59] | 74.19±1.14 |  | 
Cc1nc(-c2cccnc2)sc1C(=O)NCc1ccccn1 [TP-C2-60] | 66.88±8.04 |  | 
O=C(NC(=S)Nc1ccc(NC(=O)c2ccc(Cl)cc2Cl)cc1)c1ccccc1 [TP-C3-1] |  | 1.85 | inhibition at 5 µg/mL ([1]; 5 μg/mL, n ≥ 2): 63 ± 0.86%
CC(C)(C)c1ccc(C(=O)Nc2ccc(NC(=S)NC(=O)c3ccccc3)cc2)cc1 [TP-C3-2] |  | 27.1 | inhibition at 5 µg/mL ([1]; 5 μg/mL, n ≥ 2): 33.4 ± 1.74%; fold decrease in activity compared with compound TP-C3-3 ([1]; from IC50 values): ~ 10 fold
Cc1cccc(C(=O)Nc2ccc(NC(=S)NC(=O)c3ccccc3)cc2)c1 [TP-C3-3] |  | 2.82 | inhibition at 5 µg/mL ([1]; 5 μg/mL, n ≥ 2): 67.3 ± 0.78%
CCCOc1cccc(C(=O)NC(=S)Nc2ccc(NC(=O)c3ccccc3)cc2)c1 [TP-C3-14] |  | 22.7 | inhibition at 5 µg/mL ([1]; 5 μg/mL, n ≥ 2): 43 ± 1.08%
COc1ccc(C(=O)NC(=S)Nc2ccc(NC(=O)c3ccccc3)cc2)cc1[N+](=O)[O-] [TP-C3-15] |  | 13.8 | inhibition at 5 µg/mL ([1]; 5 μg/mL, n ≥ 2): 35.1 ± 0.63%; fold decline in activity compared to TP-C2-9 ([1]; from IC50 values): ~ 10 fold
COc1cc(NC(=S)NC(=O)c2ccc(C)cc2C)ccc1NC(=O)c1ccccc1Cl [TP-C3-21] |  | 2.74 | inhibition at 5 µg/mL ([1]; 5 μg/mL, n ≥ 2): 71.19 ± 0.29%
Cc1cc(NC(=S)NC(=O)c2ccc(C)c([N+](=O)[O-])c2)ccc1NC(=O)c1ccccc1 [TP-C3-26] |  | 48.6 | inhibition at 5 µg/mL ([1]; 5 μg/mL, n ≥ 2): 23.11 ± 0.13%
COc1ccc(Cl)cc1C(=O)NC(=S)Nc1ccc(NC(=O)c2ccccc2)c(C)c1 [TP-C3-27] |  | 19.8 | inhibition at 5 µg/mL ([1]; 5 μg/mL, n ≥ 2): 47.9 ± 0.05%
Cc1cc(NC(=S)NC(=O)c2ccc(Cl)c(Cl)c2)ccc1NC(=O)c1ccccc1 [TP-C3-29] |  | 28.2 | inhibition at 5 µg/mL ([1]; 5 μg/mL, n ≥ 2): 57.95 ± 0.29%
CCc1ccc(C(=O)NC(=S)Nc2ccc(NC(=O)c3cccc(Cl)c3)cc2)cc1 [TP-C3-43] |  | 1.64 | inhibition at 5 µg/mL ([1]; 5 μg/mL, n ≥ 2): 77.74 ± 0.42%
Cc1cccc(C(=O)Nc2ccc(NC(=S)NC(=O)c3ccccc3Cl)cc2)c1 [TP-C3-45] |  | 2.41 | inhibition at 5 µg/mL ([1]; 5 μg/mL, n ≥ 2): 49.3 ± 0.95%
CCCOc1ccc(C(=O)NC(=S)Nc2ccc(NC(=O)c3ccc(C(C)(C)C)cc3)cc2)cc1 [TP-C3-52] |  | 36.7 | inhibition at 5 µg/mL ([1]; 5 μg/mL, n ≥ 2): 7.88 ± 0.59%
CCc1ccc(C(=O)NC(=S)Nc2ccc(NC(=O)c3ccc(Cl)cc3Cl)cc2)cc1 [TP-C3-55] |  | 3.47 | inhibition at 5 µg/mL ([1]; 5 μg/mL, n ≥ 2): 60.22 ± 0.55%
COc1ccc2cc(-c3nc(-c4ccc([S+](C)[O-])cc4)[nH]c3-c3ccncc3)ccc2c1 (stereo not shown) [Tie-2 inhibitor, reference compound] | 95.2±1.58 |  | Kinase Inhibition (%) at 5 μg/mL (± SD) ([1]; 5 μg/mL, n ≥ 2): 93.01 ± 1.02%; IC50 (Tie-2): 0.25 µM
